Data taken from patent US6841519B1, “Isoxazoline derivatives and herbicides containing the same as the active ingredient” (Kumiai Chemical Industry Co., Ltd., priority 1999, dated 2005).

Columns and labels:
Format in all cases: in vivo
[1] = tested on: Setaria viridis (L.) Beauv. (Se); assay: Test for herbicidal effect by upland field soil treatment (Test Example 2), Se
Description: (§1) [table] <Test Example 2> Test For Herbicidal Effect By Upland Field Soil Treatment An upland field soil was filed in a plastic pot of 80 cm^2. Seeds of Echinochloa crus-galli (L.) Beauv. var. crusgall (Ec) and Setaria viridis (L.) Beauv. (Se) were sowed, followed by covering with the same soil. Wettable powders produced in accordance with the Formulation 1 were diluted with water and sprayed uniformly: on the soil surface using a small sprayer, in an amount of 100 liters per 10 ares so that the amount of each active ingredient became 100 g per 10 ares. Then, breeding was made in a greenhouse, and the herbicidal effect of each wettable powder was examined at the 21st day from the treatment in accordance with the standard shown in Table 40.

[2] = tested on: Echinochloa crus-galli (L.) Beauv. var. crusgalli (Ec); assay: Test for herbicidal effect by upland foliage treatment (Test Example 3); conditions: 100 g/10 a active ingredient, examined at 14th day
Description: Test For Herbicidal Effect By Upland Foliage Treatment
An upland field soil was filed in a plastic pot of 80 cm^2. Seeds of Echinochloa crus-galli (L.) Beauv. var. crusgalli (Ec) were sowed. Breeding was made in a greenhouse for 2 weeks. Wettable powders produced in accordance with the Formulation 1 were diluted with water and sprayed on the whole foliage of plants from above the plants using a small sprayer in an amount of 100 liters per 10 ares so that the amount of each active ingredient became 100 g per 10 ares. Then, breeding was made in the greenhouse, and the herbicidal effect of each wettable powder was examined at the 14th day from the treatment in accordance with the standard shown in Table 40.

[3] = tested on: Echinochloa oryzicola Vasing. (Eo); assay: Test for herbicidal effect by paddy field soil treatment (Test Example 1); conditions: application amount (active ingredient) 100 g/10 a, examined at the 21st day from the treatment, index per Table 40
Description: <Test Example 1> Test For Herbicidal Effect By Paddy Field Soil Treatment A paddy field soil was filled in a plastic pot of 100 cm^2 and subjected to puddling. Then, seeds of Echinochloa oryzicola Vasing. (Eo) were sowed and water was filled in a depth of 3 cm. Next day, wettable powders produced in accordance with the Formulation 1 were diluted with water and dropped on the water surface. The application amount of each wettable powder was 100 g per 10 ares in terms of the active ingredient. Then, breeding was made in a greenhouse, and the herbicidal effect of each wettable powder was examined at the 21st day from the treatment in accordance with the standard shown in Table 40. [table]

[4] = tested on: Echinochloa crus-galli (L.) Beauv. var. crusgall (Ec); assay: Test for herbicidal effect by upland field soil treatment (Test Example 2), Ec
Description: as §1

[5] = application amount (active ingredient) 100 g/10 a, examined at the 21st day from the treatment, index per Table 40
[6] = 100 g/10 a active ingredient, examined at 21st day

Structure (SMILES)	Herbicidal effect to Se [1, 5]	Herbicidal effect to Ec [2]	Herbicidal effect to Eo [3]	Herbicidal effect to Ec [4, 5]	Herbicidal effect to Se [1, 6]	Herbicidal effect to Ec [4, 6]
CC1(C)CC(S(=O)(=O)Cc2ccccc2)=NO1 [Compound 1-1]	5 (A herbicidal effect or phytotoxicity of 90% or more)	5 (A herbicidal effect or phytotoxicity of 90% or more)	5 (A herbicidal effect or phytotoxicity of 90% or more)	5 (A herbicidal effect or phytotoxicity of 90% or more)	–	–
CC1(C)CC(S(=O)(=O)Cc2cccc(F)c2)=NO1 [Compound 1-33]	5 (A herbicidal effect or phytotoxicity of 90% or more)	–	5 (A herbicidal effect or phytotoxicity of 90% or more)	5 (A herbicidal effect or phytotoxicity of 90% or more)	–	–
CC1(C)CC(S(=O)(=O)Cc2ccc(F)cc2)=NO1 [Compound 1-34]	5 (A herbicidal effect or phytotoxicity of 90% or more)	–	5 (A herbicidal effect or phytotoxicity of 90% or more)	5 (A herbicidal effect or phytotoxicity of 90% or more)	–	–
COc1cccc(CS(=O)(=O)C2=NOC(C)(C)C2)c1 [Compound 1-41]	5 (A herbicidal effect or phytotoxicity of 90% or more)	–	5 (A herbicidal effect or phytotoxicity of 90% or more)	5 (A herbicidal effect or phytotoxicity of 90% or more)	–	–
COc1ccc(CS(=O)(=O)C2=NOC(C)(C)C2)cc1 [Compound 1-42]	4 (A herbicidal effect or phytotoxicity of 70% to less than 90%)	–	5 (A herbicidal effect or phytotoxicity of 90% or more)	5 (A herbicidal effect or phytotoxicity of 90% or more)	–	–
CCC1(C)CC(S(=O)(=O)Cc2ccccc2F)=NO1 (centres unmarked) [Compound 1-189]	5 (A herbicidal effect or phytotoxicity of 90% or more)	–	5 (A herbicidal effect or phytotoxicity of 90% or more)	5 (A herbicidal effect or phytotoxicity of 90% or more)	–	–
CCC1(C)CC(S(=O)(=O)Cc2ccc(F)cc2)=NO1 (centres unmarked) [Compound 1-191]	5 (A herbicidal effect or phytotoxicity of 90% or more)	–	5 (A herbicidal effect or phytotoxicity of 90% or more)	5 (A herbicidal effect or phytotoxicity of 90% or more)	–	–
CCC1(C)CC(S(=O)(=O)Cc2ccc(Cl)cc2)=NO1 (centres unmarked) [Compound 1-194]	5 (A herbicidal effect or phytotoxicity of 90% or more)	–	5 (A herbicidal effect or phytotoxicity of 90% or more)	5 (A herbicidal effect or phytotoxicity of 90% or more)	–	–
CCC1(C)CC(S(=O)(=O)Cc2ccccc2Br)=NO1 (centres unmarked) [Compound 1-195]	5 (A herbicidal effect or phytotoxicity of 90% or more)	–	5 (A herbicidal effect or phytotoxicity of 90% or more)	5 (A herbicidal effect or phytotoxicity of 90% or more)	–	–
CCC1(C)CC(S(=O)(=O)Cc2ccc(C#N)cc2)=NO1 (centres unmarked) [Compound 1-329]	5 (A herbicidal effect or phytotoxicity of 90% or more)	–	5 (A herbicidal effect or phytotoxicity of 90% or more)	5 (A herbicidal effect or phytotoxicity of 90% or more)	–	–
Fc1cccc(F)c1CSC1=NOC2(CCC2)C1 [Compound 1-381]	4 (A herbicidal effect or phytotoxicity of 70% to less than 90%)	–	5 (A herbicidal effect or phytotoxicity of 90% or more)	4 (A herbicidal effect or phytotoxicity of 70% to less than 90%)	–	–
O=S(=O)(Cc1c(F)cccc1F)C1=NOC2CCCCC12 (centres unmarked) [Compound 1-387]	4 (A herbicidal effect or phytotoxicity of 70% to less than 90%)	–	5 (A herbicidal effect or phytotoxicity of 90% or more)	5 (A herbicidal effect or phytotoxicity of 90% or more)	–	–
O=S(=O)(Cc1c(F)cccc1F)C1=NOC2CCCCCC12 (centres unmarked) [Compound 1-388]	5 (A herbicidal effect or phytotoxicity of 90% or more)	–	5 (A herbicidal effect or phytotoxicity of 90% or more)	5 (A herbicidal effect or phytotoxicity of 90% or more)	–	–
COCC1(C)CC([S+]([O-])Cc2c(F)cccc2F)=NO1 (centres unmarked) [Compound 1-396]	5 (A herbicidal effect or phytotoxicity of 90% or more)	–	5 (A herbicidal effect or phytotoxicity of 90% or more)	4 (A herbicidal effect or phytotoxicity of 70% to less than 90%)	–	–
COCC1(C)CC(S(=O)(=O)Cc2c(F)cccc2F)=NO1 (centres unmarked) [Compound 1-397]	–	4 (A herbicidal effect or phytotoxicity of 70% to less than 90%)	5 (A herbicidal effect or phytotoxicity of 90% or more)	–	–	–
CC12CCCCC1C(S(=O)(=O)Cc1c(F)cccc1F)=NO2 (centres unmarked) [Compound 1-493]	4 (A herbicidal effect or phytotoxicity of 70% to less than 90%)	–	5 (A herbicidal effect or phytotoxicity of 90% or more)	5 (A herbicidal effect or phytotoxicity of 90% or more)	–	–
O=S(=O)(Cc1c(F)cccc1F)C1=NOCC1 [Compound 1-533]	–	–	5 (A herbicidal effect or phytotoxicity of 90% or more)	–	–	–
CC1(C)CC(S(=O)(=O)Cc2cc([N+](=O)[O-])cc([N+](=O)[O-])c2)=NO1 [Compound 1-546]	–	–	5 (A herbicidal effect or phytotoxicity of 90% or more)	–	4 (A herbicidal effect or phytotoxicity of 70% to less than 90%)	5 (A herbicidal effect or phytotoxicity of 90% or more)
CC1(C)CC(S(=O)(=O)Cc2ccc(F)cc2C(F)(F)F)=NO1 [Compound 1-551]	–	–	5 (A herbicidal effect or phytotoxicity of 90% or more)	–	5 (A herbicidal effect or phytotoxicity of 90% or more)	5 (A herbicidal effect or phytotoxicity of 90% or more)
CCCCOc1cccc(F)c1CS(=O)(=O)C1=NOC(C)(C)C1 [Compound 1-571]	–	5 (A herbicidal effect or phytotoxicity of 90% or more)	5 (A herbicidal effect or phytotoxicity of 90% or more)	–	–	5 (A herbicidal effect or phytotoxicity of 90% or more)
CC(c1ccccc1C(F)(F)F)S(=O)(=O)C1=NOC(C)(C)C1 (centres unmarked) [Compound 1-575]	–	–	5 (A herbicidal effect or phytotoxicity of 90% or more)	–	–	–
C#CCOC(=O)c1ccccc1CS(=O)(=O)C1=NOC(C)(C)C1 [Compound 1-600]	–	–	5 (A herbicidal effect or phytotoxicity of 90% or more)	–	–	5 (A herbicidal effect or phytotoxicity of 90% or more)
Cc1ccc(C)c(CS(=O)(=O)C2=NOC(C)(C)C2)c1C [Compound 1-616]	–	5 (A herbicidal effect or phytotoxicity of 90% or more)	5 (A herbicidal effect or phytotoxicity of 90% or more)	–	–	5 (A herbicidal effect or phytotoxicity of 90% or more)
CCC1(C)CC(S(=O)(=O)Cc2c(C)ccc(C)c2C)=NO1 (centres unmarked) [Compound 1-617]	–	–	5 (A herbicidal effect or phytotoxicity of 90% or more)	–	5 (A herbicidal effect or phytotoxicity of 90% or more)	5 (A herbicidal effect or phytotoxicity of 90% or more)
COC(=O)c1cccc(Cl)c1CS(=O)(=O)C1=NOC(C)(C)C1 [Compound 1-618]	–	–	5 (A herbicidal effect or phytotoxicity of 90% or more)	–	5 (A herbicidal effect or phytotoxicity of 90% or more)	5 (A herbicidal effect or phytotoxicity of 90% or more)
CCOC(=O)c1cccc(Cl)c1CS(=O)(=O)C1=NOC(C)(C)C1 [Compound 1-619]	–	–	5 (A herbicidal effect or phytotoxicity of 90% or more)	–	4 (A herbicidal effect or phytotoxicity of 70% to less than 90%)	5 (A herbicidal effect or phytotoxicity of 90% or more)
CC(C)OC(=O)c1cccc(Cl)c1CS(=O)(=O)C1=NOC(C)(C)C1 [Compound 1-621]	–	–	5 (A herbicidal effect or phytotoxicity of 90% or more)	–	4 (A herbicidal effect or phytotoxicity of 70% to less than 90%)	5 (A herbicidal effect or phytotoxicity of 90% or more)
CS(=O)(=O)C1=NOC2(CC2)C1 [Compound 2-28]	–	–	5 (A herbicidal effect or phytotoxicity of 90% or more)	–	–	–
